Assay [1] has as its target Sodium-dependent serotonin transporter (Homo sapiens, UniProt P31645).
Assay [2] deals with Sodium-dependent dopamine transporter (Homo sapiens, UniProt Q01959).
In assay [3] the target is Sodium-dependent noradrenaline transporter (Homo sapiens, UniProt P23975).

A value given as a limit tells only on which side of the number the result lay.

Chain of Sodium-dependent serotonin transporter (P31645 whole entry): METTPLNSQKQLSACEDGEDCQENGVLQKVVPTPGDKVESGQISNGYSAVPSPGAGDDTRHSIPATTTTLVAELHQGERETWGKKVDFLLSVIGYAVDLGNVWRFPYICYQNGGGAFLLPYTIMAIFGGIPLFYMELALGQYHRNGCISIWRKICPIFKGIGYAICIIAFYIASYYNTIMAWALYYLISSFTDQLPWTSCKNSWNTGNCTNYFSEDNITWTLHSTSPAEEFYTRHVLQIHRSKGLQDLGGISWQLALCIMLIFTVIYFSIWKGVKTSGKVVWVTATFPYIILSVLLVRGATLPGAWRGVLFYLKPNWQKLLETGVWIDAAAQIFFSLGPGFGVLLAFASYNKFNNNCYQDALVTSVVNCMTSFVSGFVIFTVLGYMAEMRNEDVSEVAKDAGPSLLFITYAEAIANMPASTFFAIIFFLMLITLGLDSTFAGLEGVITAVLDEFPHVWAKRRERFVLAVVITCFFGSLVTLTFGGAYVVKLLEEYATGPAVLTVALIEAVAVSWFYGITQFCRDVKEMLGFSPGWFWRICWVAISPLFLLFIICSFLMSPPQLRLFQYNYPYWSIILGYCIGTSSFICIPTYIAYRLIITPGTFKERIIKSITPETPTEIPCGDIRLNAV
Chain of Sodium-dependent noradrenaline transporter (P23975 whole entry): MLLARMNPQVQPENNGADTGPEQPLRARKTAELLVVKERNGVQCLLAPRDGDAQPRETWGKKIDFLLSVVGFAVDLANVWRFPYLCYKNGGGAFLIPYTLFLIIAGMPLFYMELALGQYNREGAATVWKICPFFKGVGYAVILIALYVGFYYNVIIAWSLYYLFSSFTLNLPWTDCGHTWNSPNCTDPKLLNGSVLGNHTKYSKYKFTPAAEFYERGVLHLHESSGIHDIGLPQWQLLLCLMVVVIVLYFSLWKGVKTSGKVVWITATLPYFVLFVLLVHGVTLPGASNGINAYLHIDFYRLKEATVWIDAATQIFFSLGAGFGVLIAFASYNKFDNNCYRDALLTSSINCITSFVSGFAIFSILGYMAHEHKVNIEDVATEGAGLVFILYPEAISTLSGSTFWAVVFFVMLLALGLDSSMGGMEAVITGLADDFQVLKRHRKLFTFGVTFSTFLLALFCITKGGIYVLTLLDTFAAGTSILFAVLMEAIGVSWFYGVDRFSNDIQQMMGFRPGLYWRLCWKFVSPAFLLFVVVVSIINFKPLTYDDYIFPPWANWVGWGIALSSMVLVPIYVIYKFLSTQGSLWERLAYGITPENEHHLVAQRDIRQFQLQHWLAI
Chain of Sodium-dependent dopamine transporter (Q01959 whole entry): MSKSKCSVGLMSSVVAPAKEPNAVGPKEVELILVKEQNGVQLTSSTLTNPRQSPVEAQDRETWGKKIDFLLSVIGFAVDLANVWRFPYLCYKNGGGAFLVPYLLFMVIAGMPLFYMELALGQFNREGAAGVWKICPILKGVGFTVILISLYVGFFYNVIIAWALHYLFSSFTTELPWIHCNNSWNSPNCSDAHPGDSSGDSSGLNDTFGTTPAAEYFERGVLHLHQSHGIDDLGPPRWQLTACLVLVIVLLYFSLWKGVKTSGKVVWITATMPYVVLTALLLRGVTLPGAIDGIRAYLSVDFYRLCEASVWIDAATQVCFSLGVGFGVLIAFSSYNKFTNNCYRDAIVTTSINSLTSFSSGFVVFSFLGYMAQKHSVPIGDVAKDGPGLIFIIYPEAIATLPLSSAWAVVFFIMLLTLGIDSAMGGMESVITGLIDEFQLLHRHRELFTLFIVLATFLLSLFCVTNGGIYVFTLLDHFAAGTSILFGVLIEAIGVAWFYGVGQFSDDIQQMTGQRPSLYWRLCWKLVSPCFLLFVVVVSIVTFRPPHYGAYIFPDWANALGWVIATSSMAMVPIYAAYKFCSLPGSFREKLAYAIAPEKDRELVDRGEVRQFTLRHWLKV

On to `CN1[C@H](/C=C/c2ccccc2)CCC[C@@H]1/C=C/c1ccccc1`, for which the Ki in assay [1] is 1.89 µM; in assay [2] it was 0.043 µM; in assay [3] it was 0.277 µM.

For the compound `CN1[C@@H](CCc2ccccc2)CCC[C@H]1CCc1ccccc1`, the Ki in assay [1] was 0.53 µM; in assay [2], 0.097 µM; in assay [3], 1.8 µM.

Regarding `CN1[C@@H](C[C@@H](O)c2ccccc2)CCC[C@H]1CC(=O)c1ccccc1` [Lobeline], the values for the Ki in assay [1], in assay [2] and in assay [3] were over 10 µM, 5.4 µM and 1.87 µM, respectively.
